Structures are written as SMILES.

A word on the EC50: it is the concentration needed to bring the measured effect to its halfway point.

For assay [1], the system named is Trypanosoma brucei Lister 427 VSG221 with APOL1 G0 recombinant protein. Description: APOL1 G0 trypanosome cell rescue assay (Example B5). It counts as cell-based. The following applies: Trypanosoma brucei, 20 h, read-out: APOL1 G0 Trypanosome Rescue EC50, Trypanosoma brucei Lister 427 VSG221 with APOL1 G0 recombinant protein, 20 hours, CellTiter-Glo; geometric mean of at least 2 assay runs; † = single assay run. The gist of the method: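 Recombinant APOL1 protein, dispensed from a 2 μg/mL stock, and 250 T. brucei per well were co-incubated with test compound (0.4% DMSO) for 20 h. Viability: CellTiter-Glo luminescence.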
Background: In ATP-based viability assays light output follows the ATP content of the culture.

The test system of assay [2] is HEK293 clonal cell line overexpressing APOL1 G1. Description: APOL1 G1 HEK293 cell rescue assay (Example B3). It is filed as cell-based. As to conditions: Homo sapiens, HEK293, HEK293 clonal line overexpressing APOL1 G1; geometric mean of at least 2 runs; † = single run; ¥ = concentration at 50% rescue estimated (no sigmoidal curve). The gist of the method: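 Rescue of cell death caused by APOL1 G1 overexpression was measured in a clonal HEK293 line. Compounds were tested in duplicate on one plate, and EC50s were geometric means across at least two runs on different days. Some values are estimated 50%-rescue concentrations where curve fitting failed.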

Regarding `CS(=O)(=O)c1ccc(OCCN2CCC3(CC2)C(=O)N(CCO)c2ccc(Br)cc23)cc1` [Compound 24, 5-bromo-1-(2-hydroxyethyl)-1′-[2-(4-methanesulfonylphenoxy)ethyl]-1,2-dihydrospiro[indole-3,4′-piperidin]-2-one], the EC50 is 513 nM in assay [1] and 609 nM in assay [2].
`COCCN1C(=O)C2(CCN(CCOc3ccc(S(C)(=O)=O)cc3)CC2)c2cc(C#N)ccc21` [Compound 25, 1′-[2-(4-methanesulfonylphenoxy)ethyl]-1-(2-methoxyethyl)-2-oxo-1,2-dihydrospiro[indole-3,4′-piperidine]-5-carbonitrile]: the figures for the EC50 in assay [1] and in assay [2] were more than 4000 nM and approximately 8300 nM, respectively.
Taken in the same sequence, the figures for `CS(=O)(=O)c1ccc(OCCN2CCCC3(CC2)C(=O)Nc2ccccc23)cc1` (stereo not shown) [Compound 26, 1-(2-(4-(methylsulfonyl)phenoxy)ethyl)spiro[azepane-4,3′-indolin]-2′-one] were more than 4000 nM and approximately 10900 nM.
For `CN1C(=O)CCc2cc(OCCN3CCC4(CC3)C(=O)Nc3ccc(Cl)cc34)ccc21` [Compound 27, 5-chloro-1′-[2-[(1-methyl-2-oxo-3,4-dihydroquinolin-6-yl)oxy]ethyl]spiro[indoline-3,4′-piperidine]-2-one], in that order: 201 nM and 186 nM.
With `O=C1CCc2cc(OCCN3CCC4(CC3)C(=O)Nc3ccc(Cl)cc34)cnc2N1CCO` [Compound 192, 5-chloro-1′-(2-{[8-(2-hydroxyethyl)-7-oxo-5,6,7,8-tetrahydro-1,8-naphthyridin-3-yl]oxy}ethyl)-1,2-dihydrospiro[indole-3,4′-piperidin]-2-one], the EC50 is 108 nM in assay [1] and 126 nM in assay [2].
For `CC(=O)N(C)CCS(=O)(=O)c1ccc(OCCN2CCC3(CC2)C(=O)Nc2ccc(Cl)cc23)cc1` [Compound 193, N-{2-[4-(2-{5-chloro-2-oxo-1,2-dihydrosiro[indole-3,4′-piperidin]-1′-yl}ethoxy)benzenesulfonyl]ethyl}-N-methylacetamide], in that order: 200 nM and 377 nM.
For the molecule `CS(=O)(=O)C1(c2ccc(OCCN3CCC4(CC3)C(=O)Nc3ccc(Cl)cc34)cc2)COC1` [Compound 195, 5-chloro-1′-{2-[4-(3-methanesulfonyloxetan-3-yl)phenoxy]ethyl}-1,2-dihydrospiro[indole-3,4′-piperidin]-2-one], the EC50 is 48.2 nM in assay [1] and 72 nM in assay [2].
Taken in the same sequence, the figures for `O=C1Nc2ccc(Cl)cc2C12CCN(CCOc1ccc3c(c1)CCS3(=O)=O)CC2` [Compound 196, 5-(2-{5-chloro-2-oxo-1,2-dihydrospiro[indole-3,4′-piperidin]-1′-yl}ethoxy)-2,3-dihydro-1λ^6-benzothiophene-1,1-dione] were 160 nM and 207 nM.
Taken in the same sequence, the figures for `CS(=O)(=O)c1ccc(OCCN2CCC3(CC2)C(=O)Nc2ccc(Cl)cc23)cc1C(F)F` [Compound 197, 5-chloro-1′-{2-[3-(difluoromethyl)-4-methanesulfonylphenoxy]ethyl}-1,2-dihydrospiro[indole-3,4′-piperidin]-2-one] were 30.3 nM and 69.5 nM.
Taken in the same sequence, the figures for `O=C1Nc2ccc(Cl)cc2C12CCN(CCOc1ccc(S(=O)(=O)CCO)cc1)CC2` [Compound 198, 5-chloro-1′-{2-[4-(2-hydroxyethanesulfonyl)phenoxy)ethyl}-1,2-dihydrospiro[indole-3,4′-piperidin]-2-one] were 107 nM and 203 nM.
In the case of `CS(=O)(=O)Nc1ccc(OCCN2CCC3(CC2)C(=O)Nc2ccc(Cl)cc23)cc1` [Compound 214, N-[4-(2-{5-chloro-2-oxo-1,2-dihydrospiro[indole-3,4′-piperidin]-1′-yl}ethoxy)phenyl]methanesulfonamide], the results for the EC50 in assay [1] and in assay [2] were 250 nM and 169 nM, respectively.
For `O=C1Nc2ccc(Cl)cc2C12CCN(CCOc1ccc(S(=O)(=O)[C@H]3C[C@H](O)C3)cc1)CC2` [Compound 215, 5-chloro-1′-[2-(4-{[(trans)-3-hydroxycyclobutyl]sulfonyl}phenoxy)ethyl]-1,2-dihydrospiro[indole-3,4′-piperidin]-2-one], in that order: 70.1 nM and 122 nM.
Taken in the same sequence, the figures for `CS(=O)(=O)c1ccc(OCCN2CCC3(CC2)C(=O)Nc2ccc(Cl)cc23)cc1C(O)CO` (stereo not shown) [Compound 216, 5-chloro-1′-{2-[3-(1,2-dihydroxyethyl)-4-methanesulfonylphenoxy]ethyl}-1,2-dihydrospiro[indole-3,4′-piperidin]-2-one] were 629 nM and approximately 1000 nM.
For the molecule `O=C1CCc2cc(OCCN3CCC4(CC3)C(=O)Nc3ccc(Cl)cc34)ccc2N1[C@H]1C[C@H](O)C1` [Compound 224, 5-chloro-1′-[2-({2-oxo-1-[(trans)-3-hydroxycyclobutyl]-1,2,3,4-tetrahydroquinolin-6-yl}oxy)ethyl]-1,2-dihydrospiro[indole-3,4′-piperidin]-2-one], the EC50 is 66 nM in assay [1] and 155 nM in assay [2].
For `O=C1Nc2ccc(Cl)cc2C12CCN(CCOc1ccc(S(=O)(=O)C3(CO)CC3)cc1)CC2` [Compound 225, 5-chloro-1′-[2-(4-{[1-(hydroxymethyl)cyclopropyl]sulfonyl}phenoxy)ethyl]-1,2-dihydrospiro[indole-3,4′-piperidin]-2-one], in that order: 35.2 nM and 51.7 nM.
For `CNC(=O)C1(S(=O)(=O)c2ccc(OCCN3CCC4(CC3)C(=O)Nc3ccc(Cl)cc34)cc2)CC1` [Compound 226, 1-[4-(2-{5-chloro-2-oxo-1,2-dihydrospiro[indole-3,4′-piperidin]-1′-yl}ethoxy)benzenesulfonyl]-N-methylcyclopropane-1-carboxamide], in that order: 80 nM and 138 nM.
Taken in the same sequence, the figures for `CN(C)C(=O)C1(S(=O)(=O)c2ccc(OCCN3CCC4(CC3)C(=O)Nc3ccc(Cl)cc34)cc2)CC1` [Compound 227, 1-[4-(2-{5-chloro-2-oxo-1,2-dihydrospiro[indole-3,4′-piperidin]-1′-yl}ethoxy)benzenesulfonyl]-N,N-dimethylcyclopropane-1-carboxamide] were 142 nM and 210 nM.
In the case of `O=C1Nc2ccc(Cl)cc2C12CCN(CCOc1ccc(S(=O)(=O)C3(C(=O)N4CCC4)CC3)cc1)CC2` [Compound 228, 1′-[2-(4-{[1-(azetidine-1-carbonyl)cyclopropyl]sulfonyl}phenoxy)ethyl]-5-chloro-1,2-dihydrospiro[indole-3,4′-piperidin]-2-one], the EC50 was 196 nM in assay [1] and 426 nM in assay [2].
For `CNC(=O)c1ccc(OCCN2CCC3(CC2)C(=O)Nc2ccc(Cl)cc23)cc1F` [Compound 229, 4-(2-{5-chloro-2-oxo-1,2-dihydrospiro[indole-3,4′-piperidin]-1′-yl}ethoxy)-2-fluoro-N-methylbenzamide], in that order: 417 nM and 396 nM.
On to `CN(C)C(=O)c1ccc(OCCN2CCC3(CC2)C(=O)Nc2ccc(Cl)cc23)cc1F` [Compound 230, 4-(2-{5-chloro-2-oxo-1,2-dihydrospiro[indole-3,4′-piperidin]-1′-yl}ethoxy)-2-fluoro-N,N-dimethylbenzamide], for which the figures for the EC50 in assay [1] and in assay [2] were 427 nM and 325 nM, respectively.
Taken in the same sequence, the figures for `O=C(c1ccc(OCCN2CCC3(CC2)C(=O)Nc2ccc(Cl)cc23)cc1F)N1CCOCC1` [Compound 231, 5-chloro-1′-{2-[3-fluoro-4-(morpholine-4-carbonyl)phenoxy]ethyl}-1,2-dihydrospiro[indole-3,4′-piperidin]-2-one] were 135 nM and 169 nM.
For `O=C(c1ccc(OCCN2CCC3(CC2)C(=O)Nc2ccc(Cl)cc23)cc1F)N1CCS(=O)(=O)CC1` [Compound 232, 4-[4-(2-{5-chloro-2-oxo-1,2-dihydrospiro[indole-3,4′-piperidin]-1′-yl}ethoxy)-2-fluorobenzoyl]-1λ^6-thiomorpholine-1,1-dione], in that order: 97.6 nM and 137 nM.
For `CS(=O)(=O)C1CN(C(=O)c2ccc(OCCN3CCC4(CC3)C(=O)Nc3ccc(Cl)cc34)cc2F)C1` [Compound 233, 5-chloro-1′-{2-[3-fluoro-4-(3-methanesulfonyl-azetidine-1-carbonyl)phenoxy]ethyl}-1,2-dihydrospiro[indole-3,4′-piperidin]-2-one], in that order: 81.7 nM and 244 nM.
For `O=C(c1ccc(OCCN2CCC3(CC2)C(=O)Nc2ccc(Cl)cc23)cc1F)N1CCC1` [Compound 234, 1′-{2-[4-(azetidine-1-carbonyl)-3-fluorophenoxy]ethyl}-5-chloro-1,2-dihydrospiro[indole-3,4′-piperidin]-2-one], the values for the EC50 in assay [1] and in assay [2] were 272 nM and 233 nM, respectively.
For the molecule `O=C(c1ccc(OCCN2CCC3(CC2)C(=O)Nc2ccc(Cl)cc23)cc1F)N1CC(O)C1` [Compound 235, 5-chloro-1′-{2-[3-fluoro-4-(3-hydroxyazetidine-1-carbonyl)phenoxy]ethyl}-1,2-dihydrospiro[indole-3,4′-piperidin]-2-one], the EC50 was 270 nM in assay [1] and 268 nM in assay [2].
Turning to `NC1CN(C(=O)c2ccc(OCCN3CCC4(CC3)C(=O)Nc3ccc(Cl)cc34)cc2F)C1` [Compound 236, 1′-{2-[4-(3-aminoazetidine-1-carbonyl)-3-fluorophenoxy]ethyl}-5-chloro-1,2-dihydrospiro[indole-3,4′-piperidin]-2-one], the EC50 in assay [1] was 766 nM; in assay [2], 134 nM.

Source of the values: patent US12344610B2, “APOL1 inhibitors and methods of use” (Maze Therapeutics, Inc., priority 2022, dated 2025).
